The results in this text go back to US12441733B2, “Substituted 2,4-dioxotetrahydropyrimidines as intermediates in the synthesis of bruton's tyrosine kinase inhibitors” (Novartis AG, priority 2018, dated 2025).

The target of the experiment is T1, BTK(C481S)-GFP (Homo sapiens, UniProt Q06187+Q96SW2, C481S).
T1 construct: CHYSEL (cis-acting hydrolase element, 2A) remnant after GFP; mCherry is split off as a separate protein (C); expressed in transfected cells; host or cells: TMD8 cells, lentiviral transduction with pLenti6-BTK(C481S)-GFP-CHYSEL-mCherry
Put plainly: BTK(C481S)-GFP protein abundance flow cytometry assay in TMD8 cells. The experiment is classed as cell-based. The following applies: TMD8 cells expressing BTK(C481S)-GFP; for DC50: GFP signal by flow cytometry; for BTK (C481S) Amax: % protein remaining at maximum degradation. As to the method:
Compounds of the invention were tested in the following cellular assays. The terms in Table 2 are defined as follows: DC50 refers to the concentration at which 50% maximal degradation was observed; deg Amax is the extent of degradation and the value refers to the % protein remaining at the concentration at which maximum degradation is seen; ProI GI50 refers to the proliferation data and defines the concentration at which 50% growth inhibition was observed compared to the vehicle treated control at the end of the incubation time. TMD8 cells are BTK dependent and OCI-LY3 cells are BTK independent.
Btk(C481S)-GFP Protein Abundance Flow Cytometry Assay in TMD8 Cells:
Degradation of BTK(C481S) was measured in TMD8 cells expressing BTK(C481S)-GFP and mCherry from a stably integrated second generation bicistronic BTK(C481S)-GFP-CHYSEL-mCherry construct. Reduction of the […] measured by flow cytometry served as readout for BTK(C481S) degradation after degrader treatment.
Cloning of the pLenti6-BTK(C481)-GFP-CHYSEL-mCherry Sensor Vectors
The BTK(C481 S) protein abundance sensor is based on a second generation bicistronic construct, where the 2 reading frames BTK(C481S) and mCherry control are separated by a cis-acting hydrolase element (see: Lo et al., 2015 Cell Reports 13, 2634), replacing the Ires from the first generation vector described before.
The bicistronic BTK(C481S)-GFP-CHYSEL-mCherry construct is based on a pLenti6-DEST vector backbone where a GFP-CHYSEL-mCherry cassette was synthesized and inserted downstream of the DEST cassette by Gibson assembly resulting in the new gateway compatible vector pLenti6-DEST-GFP-CHYSEL-mCherry to allow Gateway cloning with pENTR221-BTK(C48S)(STOP-Leu) to obtain the final sensor construct pLenti6-BTK(C481S)-GFP-CHYSEL-mCherry. The pENTR221-BTK(C481S)(STOP-Leu) was generated by mutating wild-type BTK to BTK(C481S) with a mutagenesis reaction on pENTR221-BTK (STOP-Leu) with the following primers (BTK C481S Quikchange fw, gagtacatggccaatggctCcctcctgaactacctgagg (SEQ ID NO: 7); BTK C481S Quikchange REVC, cctcaggtagttcaggaggGagccattggccatgtactc (SEQ ID NO: 8)) using the QuikChange Lightning mutagenesis kit (Agilent Technologies #210518) performed according to the manufacturer's manual, resulting in pENTR221-BTK(C481S)(STOP-Leu).
Sequence of the synthesized construct (Xho1 sites are shown in bold, mCherry-ORF is shown in small letters):
Engineering of Stably Expressing TMD8 BTK(C481 S-GFP-CHYSEL-mCherry Sensor Cells
TMD8 BTK(C481S)-GFP-CHYSEL-mCherry sensor cells were generated by lentiviral vector transduction using the pLenti6-BTK(C4818)-GFP-CHYSEL-mCherry sensor construct described before. Lentiviral particles were produced in HEK293FT cells (Invitrogen R70007) by co-transfection of 500 ng pLenti6-BTK-GFP-Ires-RFP or pLenti6-IKZF3-GFP-Ires-RFP, 500 ng delta8.71 and 200 ng pVSVG diluted in 100 μl OptiMEM serum free medium (Invitrogen #11058-021) that was mixed after 5 min preincubation with 3 μl of Lipofectamine2000 (Invitrogen #11668-019) in 97 μl OptiMEM serum free medium. The mix was incubated for another 20 min at RT and then added to 1 ml of a freshly prepared suspension of HEK293FT cells in a well of a 6-well plate (concentration 1.2×10^6 cells/ml). 1 day after transfection, the medium was replaced with 1.5 ml of complete growth medium (DMEM high Glucose+10% FCS+1% L-Glutamine+1% NEAA+1% NaPyr.). 48 h post transfection supernatant containing viral transducing particles was collected and frozen at −80° C.
Two days before transduction with viral particles 1×10^5 HEK293A cells (Invitrogen R7057) were seeded in 2 ml growth medium in a well of a 6-well plate. Infection was performed with 90 μl of collected supernatant containing viral transducing particles in 1 ml medium including 8 μg/ml polybrene. 24 h post infection, stably transfected cells were selected with blasticidin at a concentration of 8 μg/ml.
(A flow cytometer gives signals particle by particle.)

T1 sequence (Q06187 whole entry C481S): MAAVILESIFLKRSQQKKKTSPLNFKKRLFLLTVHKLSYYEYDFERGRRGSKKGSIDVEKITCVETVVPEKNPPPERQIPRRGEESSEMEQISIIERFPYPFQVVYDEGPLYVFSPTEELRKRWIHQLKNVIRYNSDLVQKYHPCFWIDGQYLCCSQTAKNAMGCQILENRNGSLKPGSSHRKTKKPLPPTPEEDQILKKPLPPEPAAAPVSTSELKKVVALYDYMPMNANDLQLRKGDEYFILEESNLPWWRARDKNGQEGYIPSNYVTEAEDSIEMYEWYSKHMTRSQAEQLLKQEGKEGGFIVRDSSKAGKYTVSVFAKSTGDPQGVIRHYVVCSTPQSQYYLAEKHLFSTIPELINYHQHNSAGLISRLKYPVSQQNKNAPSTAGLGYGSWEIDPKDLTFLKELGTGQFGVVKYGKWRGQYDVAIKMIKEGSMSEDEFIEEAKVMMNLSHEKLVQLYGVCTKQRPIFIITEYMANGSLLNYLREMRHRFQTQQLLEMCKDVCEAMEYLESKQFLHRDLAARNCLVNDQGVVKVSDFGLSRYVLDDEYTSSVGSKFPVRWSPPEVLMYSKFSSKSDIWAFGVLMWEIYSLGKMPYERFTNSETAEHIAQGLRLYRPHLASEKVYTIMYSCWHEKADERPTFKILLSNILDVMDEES
T1 sequence (Q96SW2 whole entry): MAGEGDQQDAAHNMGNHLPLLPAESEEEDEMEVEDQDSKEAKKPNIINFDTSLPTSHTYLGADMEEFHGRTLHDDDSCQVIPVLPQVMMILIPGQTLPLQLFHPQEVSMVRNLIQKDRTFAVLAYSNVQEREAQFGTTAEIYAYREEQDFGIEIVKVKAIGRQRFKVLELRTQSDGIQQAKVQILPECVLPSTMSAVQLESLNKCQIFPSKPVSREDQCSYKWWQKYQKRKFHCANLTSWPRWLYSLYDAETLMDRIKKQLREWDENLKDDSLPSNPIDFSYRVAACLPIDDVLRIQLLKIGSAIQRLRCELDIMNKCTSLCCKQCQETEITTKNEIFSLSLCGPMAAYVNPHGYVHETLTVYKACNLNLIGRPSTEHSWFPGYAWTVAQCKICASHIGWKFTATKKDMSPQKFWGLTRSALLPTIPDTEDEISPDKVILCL
T1 sequence (Q16531 whole entry partner): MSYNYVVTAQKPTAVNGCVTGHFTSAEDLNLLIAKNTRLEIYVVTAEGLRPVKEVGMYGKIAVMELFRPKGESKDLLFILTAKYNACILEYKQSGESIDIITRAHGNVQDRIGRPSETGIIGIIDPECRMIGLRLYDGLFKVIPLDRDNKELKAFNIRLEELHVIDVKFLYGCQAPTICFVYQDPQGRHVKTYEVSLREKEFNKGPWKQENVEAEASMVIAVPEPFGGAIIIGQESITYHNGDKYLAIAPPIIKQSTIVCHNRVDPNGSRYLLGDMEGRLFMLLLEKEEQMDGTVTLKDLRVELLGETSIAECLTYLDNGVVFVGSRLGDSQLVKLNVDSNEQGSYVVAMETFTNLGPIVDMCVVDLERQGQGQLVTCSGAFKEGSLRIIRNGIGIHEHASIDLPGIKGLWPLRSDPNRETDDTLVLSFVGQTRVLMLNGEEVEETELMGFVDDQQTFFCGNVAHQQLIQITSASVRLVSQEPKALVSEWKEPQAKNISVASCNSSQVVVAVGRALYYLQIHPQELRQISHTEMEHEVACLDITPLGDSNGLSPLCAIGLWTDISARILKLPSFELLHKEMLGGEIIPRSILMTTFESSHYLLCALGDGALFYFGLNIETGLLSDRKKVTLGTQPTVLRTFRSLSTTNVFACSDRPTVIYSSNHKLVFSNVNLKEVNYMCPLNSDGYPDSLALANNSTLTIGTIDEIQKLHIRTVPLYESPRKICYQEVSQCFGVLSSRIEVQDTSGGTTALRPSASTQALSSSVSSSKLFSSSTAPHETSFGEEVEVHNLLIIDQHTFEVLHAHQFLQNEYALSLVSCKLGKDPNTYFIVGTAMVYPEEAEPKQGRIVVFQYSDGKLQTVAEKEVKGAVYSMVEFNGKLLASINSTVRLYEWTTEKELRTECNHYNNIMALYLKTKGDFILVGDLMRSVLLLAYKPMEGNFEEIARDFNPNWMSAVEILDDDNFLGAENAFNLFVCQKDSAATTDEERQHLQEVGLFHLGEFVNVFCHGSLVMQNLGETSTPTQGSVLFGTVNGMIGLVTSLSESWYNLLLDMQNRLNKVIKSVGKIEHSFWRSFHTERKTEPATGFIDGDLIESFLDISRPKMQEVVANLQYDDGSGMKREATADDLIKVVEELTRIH

Turning to `Cc1c(NC(=O)c2ccc(C(C)(C)O)cc2F)cc(F)cc1-c1ncnc2[nH]c(-c3ccc(CN4CCC5(CC4)CCN(C(=O)c4ccc(F)c(N6CCC(=O)NC6=O)c4)CC5)cc3)cc12` [Compound 14, N-(3-(6-(4-((9-(3-(2,4-Dioxotetrahydropyrimidin-1(2H)-yl)-4-fluorobenzoyl)-3,9-diazaspiro[5.5]undecan-3-yl)methyl)phenyl)-7H-pyrrolo[2.3-d]pyrimidin-4-yl)-5-fluoro-2-methylphenyl)-2-fluoro-4-(2-hydroxypropan-2-yl)benzamide], the DC50 turned out to be 1.52 nM and the “BTK (C481S) Amax” value is reported as 2.8%.
In the same order, the values of `COc1ccc(C(=O)N2CCC(CN3CCC(Oc4ccc(-c5cc6c(-c7cc(F)cc(NC(=O)c8ccc(C(C)(C)O)cc8F)c7C)ncnc6[nH]5)cc4)CC3)CC2)cc1N1CCC(=O)NC1=O` [Compound 19, N-(3-(6-(4-((1-((1-(3-(2,4-Dioxotetrahydropyrimidin-1(2H)-yl)-4-methoxybenzoyl)piperidin-4-yl)methyl)piperidin-4-yl)oxyl)phenyl)-7H-pyrrolo[2,3-d]pyrimidin-4-yl)-5-fluoro-2-methylphenyl)-2-fluoro-4-(2-hydroxypropan-2-yl)benzamide] are 0.62 nM and 2.7%.
In the same order, the values of `Cc1c(NC(=O)c2ccc(C(C)(C)O)cc2F)cc(F)cc1-c1ncnc2[nH]c(-c3ccc(COC4CCN(CCC5CCN(C(=O)c6ccc(F)c(N7CCC(=O)NC7=O)c6)CC5)CC4)cc3)cc12` [Compound 6, N-(3-(6-(4-(((1-(2(1-(3-(2,4-dioxotetrahydropyrimidin-1(2H)-yl)-4-fluorobenzoyl)piperidin-4-yl)ethyl)piperidin-4-yl)oxyl)methyl)phenyl)-7H-pyrrolo[2,3-d]pyrimidin-4-yl)-5-fluoro-2-methylphenyl)-2-fluoro-4-(2-hydroxypropan-2-yl)benzamide] are 0.72 nM and 2.1%.
For `COc1ccc(C(=O)N2CCC(OC3CCN(CCc4ccc(-c5cc6c(-c7cc(F)cc(NC(=O)c8ccc(C(C)(C)O)cc8F)c7C)ncnc6[nH]5)cc4)CC3)CC2)cc1N1CCC(=O)NC1=O` [Compound 34, N-(3-(6-(4-(2-(4-((1-(3-(2,4-Dioxotetrahydropyrimidin-1(2H)-yl)-4-methoxybenzoyl)piperidin-4-yl)oxyl)piperidin-1-yl)ethyl)phenyl)-7H-pyrrolo[2,3-d]pyrimidin-4-yl)-5-fluoro-2-methylphenyl)-2-fluoro-4-(2-hydroxypropan-2-yl)benzamide], in that order: 1.94 nM and 1.6%.
Turning to `Cc1ccc(C(=O)N2CCC3(CCN(CCc4ccc(-c5cc6c(-c7cc(F)cc(NC(=O)c8ccc(C(C)(C)O)cc8F)c7C)ncnc6[nH]5)cc4)CC3)CC2)cc1N1CCC(=O)NC1=O` [Compound 5, N-(3-(6-(4-(2-(9-(3-(2,4-Dioxotetrahydropyrimidin-1(2H)-yl)-4-methylbenzoyl)-3,9-diazaspiro[5.5]undecan-3-yl)ethyl)phenyl)-7H-pyrrolo[2,3-d]pyrimidin-4-yl)-5-fluoro-2-methylphenyl)-2-fluoro-4-(2-hydroxypropan-2-yl)benzamide], the DC50 amounted to 0.57 nM and the “BTK (C481S) Amax” value is 2.5%.
In the same order, the values of `COc1ccc(C(=O)N2CCC3(CCN(CCc4ccc(-c5cc6c(-c7cc(F)cc(NC(=O)c8ccc(C(C)(C)O)cc8F)c7C)ncnc6[nH]5)cc4)CC3)CC2)cc1N1CCC(=O)NC1=O` [Compound 31, N-(3-(6-(4-(2-(9-(3-(2,4-Dioxotetrahydropyrimidin-1(2H)-yl)-4-methoxybenzoyl)-3,9-diazaspiro[5.5]undecan-3-yl)ethyl)phenyl)-7H-pyrrolo[2,3-d]pyrimidin-4-yl)-5-fluoro-2-methylphenyl)-2-fluoro-4-(2-hydroxypropan-2-yl)benzamide] are 1.21 nM and 3.0%.
In the same order, the values of `COc1ccc(C(=O)N2CCC3(CCN(Cc4ccc(-c5cc6c(-c7cc(F)cc(NC(=O)c8ccc(C(C)(C)O)cc8F)c7C)ncnc6[nH]5)cc4)CC3)CC2)cc1N1CCC(=O)NC1=O` [Compound 9, N-(3-(6-(4-((9-(3-(2,4-Dioxotetrahydropyrimidin-1(2H)-yl)-4-methoxybenzoyl)-3,9-diazaspiro[5.5]undecan-3-yl)methyl)phenyl)-7H-pyrrolo[2.3-d]pyrimidin-4-yl)-5-fluoro-2-methylphenyl)-2-fluoro-4-(2-hydroxypropan-2-yl)benzamide] are 1.92 nM and 4.5%.
In the same order, the values of `Cc1ccc(C(=O)N(C)CCCCCNCc2ccc(-c3cc4c(-c5cc(F)cc(NC(=O)c6ccc(C(C)(C)O)cc6F)c5C)ncnc4[nH]3)cc2)cc1N1CCC(=O)NC1=O` [Compound 30, 3-(2,4-Dioxotetrahydropyrimidin-1(2H)-yl)-N-(5-((4-(4-(5-fluoro-3-(2-fluoro-4-(2-hydroxypropan-2-yl)benzamido)-2-methylphenyl)-7H-pyrrolo[2,3-d]pyrimidin-6-yl)benzyl)amino)pentyl)-N,4-dimethylbenzamide] are 8.18 nM and 3.1%.
Regarding `COc1ccc(C(=O)N2CCN(CCCCNCc3ccc(-c4cc5c(-c6cc(F)cc(NC(=O)c7ccc(C(C)(C)O)cc7F)c6C)ncnc5[nH]4)cc3)CC2)cc1N1CCC(=O)NC1=O` [Compound 40, N-(3-(6-(4-(((4-(4-(3-(2,4-dioxotetrahydropyrimidin-1(2H)-yl)-4-methoxybenzoyl)piperazin-1-yl)butyl)amino)methyl)phenyl)-7H-pyrrolo[2,3-d]pyrimidin-4-yl)-5-fluoro-2-methylphenyl)-2-fluoro-4-(2-hydroxypropan-2-yl)benzamide], the DC50 is 3.03 nM and the “BTK (C481S) Amax” value amounted to 2.9%.
Take `CCOc1ccc(C(=O)N2CCC3(CCN(Cc4ccc(-c5cc6c(-c7cc(F)cc(NC(=O)c8ccc(C(C)(C)O)cc8F)c7C)ncnc6[nH]5)cc4)CC3)CC2)cc1N1CCC(=O)NC1=O` [Compound 4, N-(3-(6-(4-((9-(3-(2,4-Dioxotetrahydropyrimidin-1(2H)-yl)-4-ethoxybenzoyl)-3,9-diazaspiro[5.5]undecan-3-yl)methyl)phenyl)-7H-pyrrolo[2,3-d]pyrimidin-4-yl)-5-fluoro-2-methylphenyl)-2-fluoro-4-(2-hydroxypropan-2-yl)benzamide]: the DC50 was 2.08 nM and the “BTK (C481S) Amax” value came to 2.2%.
